These results are taken from ChEMBL document CHEMBL1772987, “Development of amidine-based sphingosine kinase 1 nanomolar inhibitors and reduction of sphingosine 1-phosphate in human leukemia cells” (J Med Chem, 2011).

Test [1] has as its target T1, Sphingosine kinase 2 (Mus musculus, UniProt Q9JIA7).
T1 sequence (Q9JIA7 whole entry): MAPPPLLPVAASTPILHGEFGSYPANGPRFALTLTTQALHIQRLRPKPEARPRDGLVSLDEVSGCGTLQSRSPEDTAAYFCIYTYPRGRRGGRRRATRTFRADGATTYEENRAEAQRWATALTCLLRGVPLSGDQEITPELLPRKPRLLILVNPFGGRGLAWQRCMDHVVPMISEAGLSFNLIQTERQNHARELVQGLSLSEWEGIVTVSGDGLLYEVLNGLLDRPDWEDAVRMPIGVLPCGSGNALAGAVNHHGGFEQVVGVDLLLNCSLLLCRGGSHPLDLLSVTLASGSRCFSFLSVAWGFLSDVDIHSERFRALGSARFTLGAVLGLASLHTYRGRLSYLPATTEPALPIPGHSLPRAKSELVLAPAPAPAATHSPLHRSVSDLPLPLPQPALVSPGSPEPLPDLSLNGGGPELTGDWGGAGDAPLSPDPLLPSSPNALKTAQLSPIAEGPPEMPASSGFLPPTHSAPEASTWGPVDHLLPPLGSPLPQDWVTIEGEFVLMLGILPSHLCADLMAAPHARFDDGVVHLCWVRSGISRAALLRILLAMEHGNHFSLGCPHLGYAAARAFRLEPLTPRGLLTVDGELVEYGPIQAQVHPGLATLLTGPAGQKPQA
In words: Inhibition of mouse recombinant SPHK2 expressed in baculovirus-infected Sf9 cells.

The target in test [2] is T2, Sphingosine kinase 1 (Homo sapiens, UniProt Q9NYA1). The test is described as follows: biochemical.
Description: (§1) Inhibition of human recombinant SPHK1 expressed in baculovirus-infected Sf9 cells
For test [3], the target named is T2, Sphingosine kinase 1.
Description: as §1
Test [4] has as its target Sphingosine kinase 2 (Mus musculus) (UniProt Q9JIA7). In words: Inhibition of SPHK2.

T2 sequence (Q9NYA1 whole entry): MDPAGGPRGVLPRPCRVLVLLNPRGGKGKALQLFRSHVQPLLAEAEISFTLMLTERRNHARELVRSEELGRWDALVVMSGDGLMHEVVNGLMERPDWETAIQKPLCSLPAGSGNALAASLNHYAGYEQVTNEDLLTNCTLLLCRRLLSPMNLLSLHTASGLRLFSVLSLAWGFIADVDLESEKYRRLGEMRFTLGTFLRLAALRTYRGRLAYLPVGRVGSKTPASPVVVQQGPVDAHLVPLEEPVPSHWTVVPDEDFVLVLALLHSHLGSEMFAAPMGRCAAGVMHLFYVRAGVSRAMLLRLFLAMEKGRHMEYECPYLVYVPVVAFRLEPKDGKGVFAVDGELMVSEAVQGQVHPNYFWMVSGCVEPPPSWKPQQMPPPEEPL

Consider `Oc1ccc(Nc2nc(-c3ccc(Cl)cc3)cs2)cc1`, for which the Ki in test [1] was found to be 33 µM.
As to `CCCCCCCCCCCCCCNC(=O)C1(C(=N)N)CC1`, the Ki in test [1] is 7.5 µM; in test [2], 6 µM.
For the compound `CCCCCCCCCCCCCCCCNC(=O)C1(C(=N)N)CC1`, the Ki in test [1] was > 100 µM; in test [2], 5.4 µM.
The matching figures for `CCCCCCCCCCCCCCCCCCNC(=O)C1(C(=N)N)CC1`: > 100 µM and 9 µM.
The matching figures for `N=C(N)C1(C(=O)Nc2ccc(CCCCCCCOCc3ccccc3)cc2)CC1`: 38 µM and 5 µM.
The matching figures for `N=C(N)C1(C(=O)Nc2ccc(CCCCCCCCCc3ccccc3)cc2)CC1`: > 10 µM and 0.5 µM.
Regarding `N=C(N)C1(C(=O)Nc2ccc(CCCCCCCCc3ccccc3)cc2)CC1`, the Ki in test [1] is > 10 µM; in test [2], 1.3 µM.
In the case of `N=C(N)C1(C(=O)Nc2ccc(CCCCCCOCC3CCCCC3)cc2)CC1`, the Ki was found to be 12 µM in test [1] and 0.39 µM in test [2].
In the same order, the values of `N=C(N)C1(C(=O)Nc2ccc(CCCCCCCOCC3CCCCC3)cc2)CC1` are 7 µM and 0.24 µM.
With `N=C(N)C1(C(=O)Nc2ccc(CCCCCCCCOCC3CCCCC3)cc2)CC1`, the Ki in test [1] is > 20 µM; in test [2], 0.8 µM.
In the same order, the values of `N=C(N)C1(C(=O)Nc2ccc(CCCCCCCOCC34CC5CC(CC(C5)C3)C4)cc2)CC1` are 4.6 µM and 1.5 µM.
In the case of `N=C(N)C1(C(=O)NCCCCCCCCCCOCC2CCCCC2)CC1`, the figures for the Ki in test [1] and in test [3] were 26 µM and 0.11 µM, respectively.
Turning to `N=C(N)C1(C(=O)NCCCCCCCCCCOCC2CCCC2)CC1`, the Ki in test [1] was determined as 25 µM; in test [2], 0.45 µM.
In the same order, the values of `N=C(N)C1(NC(=O)c2ccc(CCCCCCCOCC3CCCCC3)cc2)CC1` are 15 µM and 0.13 µM.
As to `N=C(N)C1(NC(=O)c2ccc(CCCCCCCOCC3CCCC3)cc2)CC1`, the Ki in test [1] turned out to be 18 µM; in test [2], 0.17 µM.
In the same order, the values of `CCCCOCCCCCCCc1ccc(C(=O)NC2(C(=N)N)CC2)cc1` are 40 µM and 1.3 µM.
In the same order, the values of `CCCCCCCCCCCOc1ccc(C(=O)NC2(C(=N)N)CC2)cc1` are 10 µM and 4 µM.
The matching figures for `N=C(N)C1(NC(=O)CCCCCCCCCCOCC2CCCCC2)CC1`: 12 µM and 0.095 µM.
For `CCCCCCCCCCCCc1ccc(C(=O)NC2(C(=N)N)CCC2)cc1`, the Ki in test [1] stood at 5 µM; in test [2] it was 1.6 µM.
As to `N=C(N)[C@@H]1CCCN1C(=O)c1ccc(CCCCCCCOCC2CCCCC2)cc1`, the values for the Ki in test [1] and in test [3] were 3 µM and 0.075 µM, respectively.
On to `N=C(N)[C@@H]1CCCN1C(=O)c1ccc(CCCCCCCCCC2CCCCC2)cc1`, for which the results for the Ki in test [1] and in test [2] were 5.3 µM and 0.099 µM, respectively.
With `N=C(N)[C@@H]1CCCN1C(=O)CCCCCCCCCCOCC1CCCCC1`, the Ki in test [1] is 8 µM; in test [2], 0.13 µM.
The matching figures for `N=C(N)[C@@H]1CCCN1C(=O)c1ccc(-c2nc(-c3cccc(CCC4CCCCC4)c3)c[nH]2)cc1`: 20 µM and 2 µM.
As to `N=C(N)[C@@H]1CCCN1C(=O)c1ccc(-c2nc(-c3cccc(CCC4CCCCC4)c3)co2)cc1`, the Ki worked out at 4.2 µM in test [1] and 0.047 µM in test [3].
For the compound `N=C(N)[C@@H]1CCCN1C(=O)c1ccc(-c2nc(-c3cccc(CCC4CCCCC4)c3)cs2)cc1`, the figures for the Ki in test [1] and in test [2] were 6 µM and 0.11 µM, respectively.
As for `CCCCCCCCc1ccc(NC(=O)[C@@H](N)CCO)cc1`, the Ki in test [1] and in test [4] was 31 µM throughout.
